According to the NIST ThermoML archive (doi:10.1016/j.jct.2016.10.029):
Numbers after ± are expanded uncertainties.

How the values were obtained:
[1] = Molar enthalpy of transition or fusion; settings: Crystal; DSC
[2] = Crystal; DTA

Question: With CCOc1cc(C=O)ccc1O [3-ethoxy-4-hydroxybenzaldehyde] as the molecule, how does the “Molar enthalpy of transition or fusion” value [1] read?
Answer: Its value is 5.68 ± 0.263 kcal/mol.

Question: And the Normal melting temperature [2]?
Answer: The Normal melting temperature was 79.83 ± 1.1 °C.
